For this test, the system named is TM4SF5-non-expressing cells (SNU449Cp). The test can be described thus: Western blotting for signaling factor phosphorylation in TM4SF5-non-expressing cells. Type of test: cell-based, human. On the procedure: Cell extracts were obtained from cells grown to a density of 70-80% without any treatment, or from cells treated with vehicle DMSO or drugs at the given concentrations for 24 hours. For the extract of hepatocytes or liver cancer cells, a lysis buffer (150 mM NaCl, 1% NP-40, 50 mM Tris-HCl, 0.25% sodium deoxycholate, pH 7.4) including a protease inhibitor cocktail (GenDEPOT) was used. In addition, after washing animal liver tissue twice with PBS, SDS, Na3VO4, and protease inhibitor cocktails (GenDEPOT) were added to a lysis buffer [50 mM Tris-HCl, pH 7.4, 1% NP40, 0.25% sodium deoxycholate, 150 mM NaCl, 1 mM EDTA (based on 500 ml)], followed by treatment at 4°C for 15 minutes. After centrifugation at 13,000 rpm at 4°C for 30 minutes, only the supernatant was transferred to a new microcentrifuge tube. After quantification using BCA reagent (Thermo Scientific), a 4 × sample buffer [100% glycerol 4 ml, Tris-HCl, pH 6.8, 2.4 ml, SDS 0.8 g, Bromophenol blue 4 mg, betamercaptoethanol 0.4 ml, H2O 3.1 ml (based on 10 ml)] was added, followed by boiling at 100°C for 5 minutes. After performing SDS-PAGE electrophoresis with the above samples and transferring them to Nitrocellulose Membranes Protran™ nitrocellulose membranes (Whatman), pre-treatment was performed with 5% skim milk for 1 hour. After pre-treatment, primary antibodies of p-FAK(Y861) (SC-16663), p-FAK(Y577) (SC-16665), c-Src (SC-8056), STAT3 (SC-8019), p-AKT 1/2/3(S473) (SC-7985), STATS (SC-835), Laminin γ2 (SC-393225), COL1A1 (SC-28657), CCL5(RANTES) (SC-514019) CCL20(MIP-3α) (SC-517441), SIRT1 (SC-74465), ChREBP (SC-515922), SREBP1 (SC-366513), DGAT1 (SC-271934), DGAT2 (SC-293211), MICA/B (SC-137242), SLAMF7 (SC-390840), α-tublin (SC-5286), β-actin (SC-47778), FUCA (SC-365496) (the above from Santa Cruz Biotech, USA), p-FAK(Y397) (cat # 611723), FAK (cat # 610088), p27 (cat # 610242) (the above from BD Transduction, USA), p-FAK(Y925) (#3284) p-c-Src(Y416) (#2101), p-STAT3(Y705) (#9145), p70S6K1 (#9202), p-p70S6K1(T389) (#9205), p-STAT5(Y694) (#9314), ACC (#3676), FASN (#3189), CPT1A (#12252), p-ACC(S79) (#11818), HA (#3724), PD-L1 (#13684), PD-1 (#86163), p-ERK1/2(T202/Y204) (#9101s), ERK1/2 (#9102s) (the above from Cell Signaling Tech., USA), pS10p27(S10) (ab62364), human SLAMF6 (ab224201), TIGIT (ab233404), CD34 (ab81289) (the above from Abcam, UK), mouse SLAMF6 (PA5-87823), NKG2D (PA5-102038) (the above from Thermofisher, USA), α-SMA (Sigma Aldrich, A5228), CCL2 (Invitrogen, MA5-17040), and CD155(PVR) (Biolegend, 337601), HA (Biolegend, USA), Strep-HRP(horse-radish peroxidase), StrepMAB-HRP (IBA, USA), AFP (FineTest, FNab00203) were reacted at 4°C for 15 hours. The next day, secondary antibodies were reacted, and development was performed on X-ray film using ECL (Pierce, USA). Anti-TM4SF5C-ter (epitope region of RKKQDTPH^197) and anti-TM4SF5EC2 (CLMNGEWGYHFEDTAGA^130) were custom-made at a professional antibody production company (Pro-Sci, Poway, CA, USA).
(a) Cell extracts were obtained after treating TM4SF5-non-expressing cells (SNU449Cp) and TM4SF5-expressing cells (SNU449T7) with vehicle (DMSO), ST-2-001, or an ST-2-001-based derivative drug at a concentration of 5 µM for 24 hours. (b) Cell extracts were obtained after treating SNU449Cp and SNU449T7 with DMSO, ST-2-001, ST-3-001, ST-3-006, ST-3-007, ST-3-010, or ST-3-011 at a concentration of 5 µM for 24 hours. (c) Cell extracts were obtained after treating SNU449Cp and SNU449T7 with DMSO, ST-2-001, ST-3-006, or ST-3-011 at the given concentrations for 24 hours. (a-c) Using the cell extracts obtained after the drug treatment, Western blotting was performed for signaling factors whose phosphorylation and activity increase in a TM4SF5-expression dependent manner.

The mark [1] stands for this setting: given concentrations, 24 hours (FIG. 9c).
[2] abbreviates: 5 µM, 24 hours (FIG. 9a-b, blue-lined boxes).

Here are results for 3 compounds from patent publication EP4772500A1, “NOVEL ISOXAZOLE COMPOUND AS TM4SF5-SPECIFIC INHIBITOR AND USE THEREOF” (Seoul National University R&DB Foundation, priority 2023, dated 2025).

The structures appear in SMILES notation.

`COc1ccc(-c2cc(-c3ccc(NC(C)=O)cc3)no2)cc1` [ST-2-001, N-(4-(5-(4-methoxyphenyl)isoxazole-3-yl)phenyl)acetamide]: the “phosphorylation of some signaling factors” value (from here on “phosphorylation”) under setting [1] is listed as “increased”.

For `CC(=O)Nc1ccc(-c2cc(-c3ccc(F)cc3)on2)cc1` [ST-3-006, N-(4-(5-(4-fluorophenyl)isoxazole-3-yl)phenyl)acetamide], the “phosphorylation” value runs as follows: under setting [2], “increased”; under setting [1], “increased”.

Consider `COc1ccc(-c2cc(-c3cccc(NC(C)=O)c3)no2)cc1` [ST-3-011, N-(3-(5-(4-methoxyphenyl)isoxazole-3-yl)phenyl)acetamide], for which the “phosphorylation” value by setting is: under setting [2], “increased”; under setting [1], “increased”.
